Reference: patent US7776848B2, “Spirocyclic cyclohexane compounds” (Gruenenthal GmbH, priority 2004, dated 2010)
Counter-ions that a name gives are not always drawn.

Experiments:
[1] = molecular target: T1, 5HT uptake (serotonin reuptake), synaptosomes from hypothalamus of male rat brains (Rattus norvegicus, UniProt P31652); assay: Serotonin reuptake inhibition (5HT uptake inhibition) in rat brain synaptosomes; format: biochemical
T1 construct: synaptosomes are freshly isolated from areas of rat brain; from tissue; host or cells: synaptosomes (P2 fraction) from hypothalamus of male rat brains
Procedure: Biological Testing a) Studies of Serotonin Reuptake Inhibition (5HT Uptake Inhibition)
In order to be able to carry out these in vitro studies, synaptosomes are freshly isolated from areas of rat brain. A so-called “P2” fraction is used in each case, which is prepared according to the procedure of Gray and Whittaker (E. G. Gray and V. P. Whittaker (1962) J. Anat. 76, 79-88). For 5HT uptake, these vesicular particles are isolated from the hypothalamus of male rat brains. A detailed description of the method can be found in the literature (M. Ch. Frink, H.-H. Hennies, W. Englberger, M. Haurand and B. Wilffert (1996) Arzneim.-Forsch./Drug Res. 46 (III), 11, 1029-1036).

human μ-opiate receptor = molecular target: T2, human μ-opiate receptor (Homo sapiens, UniProt P35372); assay: Measurement of μ binding ([3H]-naloxone displacement, SPA, CHO-K1 membrane preparation); conditions: 1.5 h; % inhibition of specific [3H]-naloxone binding at 1 μM test substance
T2 construct: purchased NEN, Zaventem, Belgium RB-HOM; host or cells: CHO-K1 cells (membrane preparation)
Procedure: c) Measurement of μ Binding
The receptor affinity for the human μ-opiate receptor was determined in a homogeneous batch on microtitre plates. To that end, serial dilutions of the substituted spirocyclic cyclohexane derivative to be tested were incubated for 90 minutes at room temperature with a receptor membrane preparation (15-40 μg of protein per 250 μl of incubation batch) of CHO-K1 cells, which express the human μ-opiate receptor (RB-HOM receptor membrane preparation from NEN, Zaventem, Belgium), in the presence of 1 nmol/l of the radioactive ligand [^3H]-naloxone (NET719, NEN, Zaventem, Belgium) and 1 mg of WGA-SPA beads (wheatgerm agglutinin SPA beads from Amersham/Pharmacia, Freiburg, Germany) in a total volume of 250 μl. The incubation buffer used was 50 mmol/l of Tris-HCl supplemented with 0.05 wt. % sodium azide and with 0.06 wt. % bovine serum albumin. In order to determine non-specific binding, 25 μmol/l of naloxone were additionally added. When the ninety-minute incubation time was complete, the microtitre plates were centrifuged off for 20 minutes at 1000 g and the radioactivity was measured in a β-counter (Microbeta-Trilux, PerkinElmer Wallac, Freiburg, Germany). The percentage displacement of the radioactive ligand from its binding to the human μ-opiate receptor at a concentration of the test substances of 1 μmol/l was determined and stated as the percentage inhibition (% inhibition) of specific binding. In some cases, on the basis of the percentage displacement by different concentrations of the compounds of formula I to be tested, IC50 inhibitory concentrations, which effect 50% displacement of the radioactive ligand, were calculated. Ki values for the test substances were obtained by conversion by means of the Cheng-Prusoff equation.

[2] = molecular target: T3, NA uptake (noradrenaline reuptake), synaptosomes from hypothalamus of male rat brains (Rattus norvegicus, UniProt Q63380); assay: Noradrenaline reuptake inhibition (NA uptake inhibition) in rat brain synaptosomes; format: biochemical
T3 construct: synaptosomes are freshly isolated from areas of rat brain; from tissue; host or cells: synaptosomes (P2 fraction) from hypothalamus of male rat brains
Procedure: b) Studies of Noradrenaline Reuptake Inhibition (NA Uptake Inhibition)
In order to be able to carry out these in vitro studies, synaptosomes are freshly isolated from areas of rat brain. A so-called “P2” fraction is used in each case, which is prepared according to the procedure of Gray and Whittaker (E. G. Gray and V. P. Whittaker (1962) J. Anat. 76, 79-88). For NA uptake, these vesicular particles are isolated from the hypothalamus of male rat brains. A detailed description of the method can be found in the literature (M. Ch. Frink, H.-H. Hennies, W. Englberger, M. Haurand and B. Wilffert (1996) Arzneim.-Forsch./Drug Res. 46 (III), 11, 1029-1036).

T2 sequence (P35372 whole entry): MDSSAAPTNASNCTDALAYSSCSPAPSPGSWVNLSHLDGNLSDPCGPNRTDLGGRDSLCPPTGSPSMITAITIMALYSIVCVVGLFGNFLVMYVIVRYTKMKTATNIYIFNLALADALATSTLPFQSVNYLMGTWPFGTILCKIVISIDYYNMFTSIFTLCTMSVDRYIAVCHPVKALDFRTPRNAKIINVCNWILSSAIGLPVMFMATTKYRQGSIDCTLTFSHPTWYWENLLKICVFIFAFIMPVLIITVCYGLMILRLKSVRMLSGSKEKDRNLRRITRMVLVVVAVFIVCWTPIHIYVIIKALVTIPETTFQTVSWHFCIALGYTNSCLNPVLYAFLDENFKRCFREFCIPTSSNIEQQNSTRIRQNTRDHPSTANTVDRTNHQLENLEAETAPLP
T3 sequence (Q63380 1-617): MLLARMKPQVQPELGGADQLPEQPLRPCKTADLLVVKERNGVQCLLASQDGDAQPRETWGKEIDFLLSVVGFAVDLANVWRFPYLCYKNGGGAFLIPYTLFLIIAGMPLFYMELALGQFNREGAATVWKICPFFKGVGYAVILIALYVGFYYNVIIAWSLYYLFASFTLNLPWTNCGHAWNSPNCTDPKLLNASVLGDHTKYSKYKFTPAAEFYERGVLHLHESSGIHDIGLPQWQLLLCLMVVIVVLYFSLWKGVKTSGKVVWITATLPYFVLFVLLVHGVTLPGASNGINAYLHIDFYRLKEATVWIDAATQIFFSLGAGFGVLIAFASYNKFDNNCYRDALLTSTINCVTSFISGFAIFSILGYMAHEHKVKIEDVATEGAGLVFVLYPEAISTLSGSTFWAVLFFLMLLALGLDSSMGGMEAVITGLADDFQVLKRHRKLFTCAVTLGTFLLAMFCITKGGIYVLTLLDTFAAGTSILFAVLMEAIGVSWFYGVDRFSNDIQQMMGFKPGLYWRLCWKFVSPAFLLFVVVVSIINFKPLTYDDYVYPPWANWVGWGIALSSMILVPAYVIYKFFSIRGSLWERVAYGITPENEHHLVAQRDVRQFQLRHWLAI
T1 sequence (P31652 whole entry): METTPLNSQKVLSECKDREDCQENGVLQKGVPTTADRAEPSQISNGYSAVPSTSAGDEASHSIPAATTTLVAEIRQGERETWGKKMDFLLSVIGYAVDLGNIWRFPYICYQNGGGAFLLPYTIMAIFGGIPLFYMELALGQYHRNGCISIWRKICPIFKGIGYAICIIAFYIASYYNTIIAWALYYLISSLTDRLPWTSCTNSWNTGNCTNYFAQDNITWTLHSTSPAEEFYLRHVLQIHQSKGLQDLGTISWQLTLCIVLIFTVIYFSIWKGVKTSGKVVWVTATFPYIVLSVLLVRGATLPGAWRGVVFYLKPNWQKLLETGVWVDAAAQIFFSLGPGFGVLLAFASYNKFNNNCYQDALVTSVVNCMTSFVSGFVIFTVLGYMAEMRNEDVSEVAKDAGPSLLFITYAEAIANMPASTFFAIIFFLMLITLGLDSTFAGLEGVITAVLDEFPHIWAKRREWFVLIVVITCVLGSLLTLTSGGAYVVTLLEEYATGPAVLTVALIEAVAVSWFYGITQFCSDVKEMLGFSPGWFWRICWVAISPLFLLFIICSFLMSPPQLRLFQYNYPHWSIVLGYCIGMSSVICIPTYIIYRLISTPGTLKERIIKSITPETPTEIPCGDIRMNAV

SMILES | inhibition at 10 µM [1] [%] | inhibition at 1 µM (human μ-opiate receptor) [%] | inhibition at 10 µM [2] [%]
CN(C)CC1CC2(CCC1(O)c1cccc(F)c1)OCCc1c2[nH]c2ccccc12 (stereo not drawn) [Example 27, 1,1-(2-(Dimethylaminomethyl)-3-hydroxy-3-(3-fluorophenyl)-pentamethylene)-1,3,4,9-tetrahydro-pyrano[3,4-b]indole hydrochloride] | 83 | 64 | 
CN(C)CC1CC2(CCC1(O)c1ccccc1)OCCc1c2[nH]c2ccccc12 (stereo not drawn) [Example 4, 1,1-(2-(Dimethylaminomethyl)-3-hydroxy-3-phenyl-pentamethylene)-1,3,4,9-tetrahydro-pyrano[3,4-b]indole sesquicitrate] | 84 | 74 | 
CN(C)CC1CC2(CCC1(O)c1ccccc1)NCCc1c2[nH]c2ccccc12 (stereo not drawn) [Example 28, 1,1-(2-(Dimethylaminomethyl)-3-hydroxy-3-phenyl-pentamethylene)-3,4-dihydro-1H-2,9-diazafluorene citrate] |  | 57 | 
CN(C)CC1CC2(CCC1(O)c1ccccc1)OCCc1c2oc2ccccc12 (stereo not drawn) [Example 5, 1,1-(2-(Dimethylaminomethyl)-3-hydroxy-3-phenyl-pentamethylene)-1,3,4,9-tetrahydro-pyrano[3,4-b]benzofuran citrate] | 84 | 58 | 51
Cc1ccccc1C1(O)CCC2(CC1CN(C)C)OCCc1c2oc2ccccc12 (stereo not drawn) [Example 12, 1,1-(2-(Dimethylaminomethyl)-3-hydroxy-3-(2-methylphenyl)-pentamethylene)-1,3,4,9-tetrahydro-pyrano[3,4-b]benzofuran citrate] | 68 | 56 | 41
COc1cccc(C2(O)CCC3(CC2CN(C)C)NCCc2c3[nH]c3ccccc23)c1 (stereo not drawn) [Example 1, 1,1-(2-(Dimethylaminomethyl)-3-hydroxy-3-(3-methoxyphenyl)pentamethylene)-3,4-dihydro-1H-2,9-diazafluorene dihydrochloride] | 44 | 40 | 43
COc1cccc(C2(O)CCC3(CC2CN(C)C)c2[nH]c4ccccc4c2CCN3C(C)=O)c1 (stereo not drawn) [Example 2, 1,1-(2-(Dimethylaminomethyl)-3-hydroxy-3-(3-methoxyphenyl)pentamethylene)-2-acetyl-3,4-dihydro-1H-2,9-diazafluorene hydrochloride] |  | 65 | 
CSc1ccc(C2(O)CCC3(CC2CN(C)C)NCCc2c3[nH]c3cc(F)ccc23)cc1 (stereo not drawn) [Example 34, 1,1-(2-(Dimethylaminomethyl)-3-hydroxy-3-(4-methylthiophenyl)-pentamethylene)-7-fluoro-3,4-dihydro-1H-2,9-diazafluorene citrate] | 65 | 54 | 57
CN(C)CC1CC2(CCC1(O)c1cccc(F)c1)OCCc1c2oc2ccccc12 (stereo not drawn) [Example 8, 1,1-(2-(Dimethylaminomethyl)-3-hydroxy-3-(3-fluorophenyl)-pentamethylene)-1,3,4,9-tetrahydro-pyrano[3,4-b]benzofuran citrate] | 88 | 73 | 66
